Laboratory results as given in patent publication US10646488B2 (Araxes Pharma LLC, priority 2016, dated 2020).

What follows are compounds tested against T1, KRAS G12C 1-169, his-tagged protein, GDP-loaded (Homo sapiens, UniProt P01116, G12C) (assay: Covalent binding (% modification) to KRAS G12C by mass spectrometry). Details: covalent binding to KRAS G12C after a ten minute incubation period.
T1 construct: KRAS G12C 1-169, his-tagged protein, GDP-loaded
Further: test concentration or dose not given here.

| Structure (SMILES) | Binding % |
| --- | --- |
| C=CC(=O)N1CCN(c2nc(OCCN3CC(F)(F)C3)nc3c(F)c(-c4c(O)cccc4F)c(Cl)cc23)[C@@H](C)C1 [Compound 11, 1-((3S)-4-(6-chloro-2-(2-(3,3-difluoroazetidin-1-yl)ethoxy)-8-fluoro-7-(2-fluoro-6-hydroxyphenyl)quinazolin-4-yl)-3-methylpiperazin-1-yl)prop-2-en-1-one] | +++ (+++ indicates binding activity greater than 90%) |
| C=CC(=O)N1CCN(c2nc(N3CC(N(C)C)C3)nc3c(F)c(-c4c(O)cccc4F)c(Cl)cc23)[C@@H](C)C1 (atropisomer, axis not shown) [Compound 59, 1-((S)-4-((R)-6-chloro-2-(3-(dimethylamino)azetidin-1-yl)-8-fluoro-7-(2-fluoro-6-hydroxyphenyl)quinazolin-4-yl)-3-methyl-piperazin-1-yl) prop-2-en-1-one] | + (+ indicates binding activity up to 50%) |
| C=CC(=O)N1CCN(c2nc(N3CC(N(C)C)C3)nc3c(F)c(-c4c(O)cccc4F)c(Cl)cc23)C[C@H]1C (atropisomer, axis not shown) [Compound 61, 1-((R)-4-((R)-6-chloro-2-(3-(dimethylamino)azetidin-1-yl)-8-fluoro-7-(2-fluoro-6-hydroxyphenyl)quinazolin-4-yl)-2-methyl-piperazin-1-yl) prop-2-en-1-one] | + (+ indicates binding activity up to 50%) |
| C=CC(=O)N1C[C@@H](C)N(c2nc(OCCN3CC(F)(F)C3)nc3c(F)c(-c4c(C)ccc5cn[nH]c45)c(Cl)cc23)[C@@H](C)C1 [Compound 47, 1-((3S,5R)-4-(6-chloro-2-(2-(3,3-difluoroazetidin-1-yl)ethoxy)-8-fluoro-7-(6-methyl-1H-indazol-7-yl)quinazolin-4-yl)-3,5-dimethyl-piperazin-1-yl) prop-2-en-1-one] | ++ (++ indicates binding activity from 50 to 90%) |
| C=CC(=O)N1C(C)CN(c2nc(N)nc3c(F)c(-c4c(O)cccc4F)c(Cl)cc23)CC1C (stereo not shown) [Compound 2, 1-(4-(2-amino-6-chloro-8-fluoro-7-(2-fluoro-6-hydroxyphenyl)quinazolin-4-yl)-2,6-dimethyl-piperazin-1-yl) prop-2-en-1-one] | ++ (++ indicates binding activity from 50 to 90%) |
| C=CC(=O)N1C[C@@H](C)N(c2nc(NC3CCN(C4CC4)CC3)nc3c(F)c(-c4c(C)ccc5[nH]ncc45)c(Cl)cc23)[C@@H](C)C1 [Compound 42, 1-((3S,5R)-4-(6-chloro-2-((1-cyclopropyl-piperidin-4-yl)amino)-8-fluoro-7-(5-methyl-1H-indazol-4-yl)quinazolin-4-yl)-3,5-dimethyl-piperazin-1-yl) prop-2-en-1-one] | ++ (++ indicates binding activity from 50 to 90%) |
| C=CC(=O)N1C[C@@H](C)N(c2nc(N3CC(N(C)C)C3)nc3c(F)c(-c4c(O)cccc4F)c(Cl)cc23)[C@@H](C)C1 [Compound 21, 1-((3S,5R)-4-(6-chloro-2-(3-(dimethylamino)azetidin-1-yl)-8-fluoro-7-(2-fluoro-6-hydroxyphenyl)quinazolin-4-yl)-3,5-dimethyl-piperazin-1-yl) prop-2-en-1-one] | ++ (++ indicates binding activity from 50 to 90%) |

Same assay, conditions: covalent binding to KRAS G12C after a three minute incubation period

| Structure (SMILES) | Binding % |
| --- | --- |
| C=CC(=O)N1C[C@H](C)N(c2nc(OCCN3CCC(F)(F)C3)nc3c(F)c(-c4c(O)cccc4F)c(Cl)cc23)C[C@H]1C [Compound 203, 1-((2R,5S)-4-(6-chloro-2-(2-(3,3-difluoropyrrolidin-1-yl)ethoxy)-8-fluoro-7-(2-fluoro-6-hydroxyphenyl)quinazolin-4-yl)-2,5-dimethyl-piperazin-1-yl) prop-2-en-1-one] | +++ (+++ indicates binding activity greater than 90%) |
| C#CCN(C)C1CN(c2nc(N3C[C@@H](C)N(C(=O)C=C)C[C@@H]3C)c3cc(Cl)c(-c4c(C)ccc5cn[nH]c45)c(F)c3n2)C1 [Compound 148, 1-((2R,5S)-4-(6-chloro-8-fluoro-2-(3-(methyl (prop-2-yn-1-yl)amino)azetidin-1-yl)-7-(6-methyl-1H-indazol-7-yl)quinazolin-4-yl)-2,5-dimethyl-piperazin-1-yl) prop-2-en-1-one] | ++ (++ indicates binding activity from 50 to 90%) |
| C=CC(=O)N1C[C@H](C)N(c2nc(N3CC(N(C)C)C3)nc3c(F)c(-c4cc(O)cc5ccccc45)c(Cl)cc23)C[C@H]1C (atropisomer, axis not shown) [Compound 219, 1-((2R,5S)-4-(6-chloro-2-(3-(dimethylamino)azetidin-1-yl)-8-fluoro-7-((S)-3-hydroxynaphthalen-1-yl)quinazolin-4-yl)-2,5-dimethyl-piperazin-1-yl) prop-2-en-1-one] | +++ (+++ indicates binding activity greater than 90%) |
| C=CC(=O)N1C[C@H](C)N(c2nc(OCCN(CC)CC)nc3c(F)c(-c4c(C)ccc5cn[nH]c45)c(Cl)cc23)C[C@H]1C [Compound 136, 1-((2R,5S)-4-(6-chloro-2-(2-(diethylamino)ethoxy)-8-fluoro-7-(6-methyl-1H-indazol-7-yl)quinazolin-4-yl)-2,5-dimethyl-piperazin-1-yl) prop-2-en-1-one] | +++ (+++ indicates binding activity greater than 90%) |
| C=CC(=O)N1C[C@H](C)N(c2nc(N3CC(N(C)C4CCC4)C3)nc3c(F)c(-c4c(C)ccc5[nH]ncc45)c(Cl)cc23)C[C@H]1C [Compound 143, 1-((2R,5S)-4-(6-chloro-2-(3-(cyclobutyl (methyl)amino)azetidin-1-yl)-8-fluoro-7-(5-methyl-1H-indazol-4-yl)quinazolin-4-yl)-2,5-dimethyl-piperazin-1-yl) prop-2-en-1-one] | +++ (+++ indicates binding activity greater than 90%) |
| C=CC(=O)N1C[C@H](C)N(c2nc(N3CC4(CCN(C5CC5)CC4)C3)nc3c(F)c(-c4c(C)ccc5[nH]ncc45)c(Cl)cc23)C[C@H]1C [Compound 200, 1-((2R,5S)-4-(6-chloro-2-(7-cyclopropyl-2,7-diazaspiro[3.5]nonan-2-yl)-8-fluoro-7-(5-methyl-1H-indazol-4-yl)quinazolin-4-yl)-2,5-dimethyl-piperazin-1-yl) prop-2-en-1-one] | ++ (++ indicates binding activity from 50 to 90%) |
| C=CC(=O)N1C[C@H](C)N(c2nc(N3CC(N)C3)nc3c(F)c(-c4c(O)cccc4F)c(Cl)cc23)C[C@H]1C [Compound 92] | ++ (++ indicates binding activity from 50 to 90%) |
| C=CC(=O)N1C[C@H](C)N(c2nc(OCCc3ncccn3)nc3c(F)c(-c4c(O)cccc4F)c(Cl)cc23)C[C@H]1C [Compound 198, 1-((2R,5S)-4-(6-chloro-8-fluoro-7-(2-fluoro-6-hydroxyphenyl)-2-(2-(pyrimidin-2-yl)ethoxy)quinazolin-4-yl)-2,5-dimethyl-piperazin-1-yl) prop-2-en-1-one] | +++ (+++ indicates binding activity greater than 90%) |
| C=CC(=O)N1C[C@H](C)N(c2nc(OCCN3CCC(F)(F)C3)nc3c(F)c(-c4c(C)ccc5[nH]ncc45)c(Cl)cc23)C[C@H]1C [Compound 209, 1-((2R,5S)-4-(6-chloro-2-(2-(3,3-difluoropyrrolidin-1-yl)ethoxy)-8-fluoro-7-(5-methyl-1H-indazol-4-yl)quinazolin-4-yl)-2,5-dimethyl-piperazin-1-yl) prop-2-en-1-one] | +++ (+++ indicates binding activity greater than 90%) |
| C=CC(=O)N1C[C@H](C)N(c2nc(N3CC(N(C)C)C3)nc3c(F)c(-c4c(F)cccc4F)c(Cl)cc23)C[C@H]1C [Compound 180, 1-((2R,5S)-4-(6-chloro-7-(2,6-difluorophenyl)-2-(3-(dimethyl-amino)azetidin-1-yl)-8-fluoro-quinazolin-4-yl)-2,5-dimethyl-piperazin-1-yl) prop-2-en-1-one] | + (+ indicates binding activity greater than 0% and up to 50%) |
| C=CC(=O)N1C[C@H](C)N(c2nc(N3CC4(CCCN(C5CC5)C4)C3)nc3c(F)c(-c4c(C)ccc5[nH]ncc45)c(Cl)cc23)C[C@H]1C [Compound 182, 1-((2R,5S)-4-(6-chloro-2-(6-cyclopropyl-2,6-diazaspiro[3.5]nonan-2-yl)-8-fluoro-7-(5-methyl-1H-indazol-4-yl)quinazolin-4-yl)-2,5-dimethyl-piperazin-1-yl) prop-2-en-1-one] | + (+ indicates binding activity greater than 0% and up to 50%) |
| C=CC(=O)N1C[C@H](C)N(c2nc(N3CC4(CCN(C5CC5)CC4)C3)nc3c(F)c(-c4c(O)cccc4F)c(Cl)cc23)C[C@H]1C [Compound 173, 1-((2R,5S)-4-(6-chloro-2-(7-cyclopropyl-2,7-diazaspiro[3.5]nonan-2-yl)-8-fluoro-7-(2-fluoro-6-hydroxyphenyl)quinazolin-4-yl)-2,5-dimethyl-piperazin-1-yl) prop-2-en-1-one] | ++ (++ indicates binding activity from 50 to 90%) |
| C=CC(=O)N1C[C@H](C)N(c2nc(Oc3ccnn3C)nc3c(F)c(-c4c(C)ccc5[nH]ncc45)c(Cl)cc23)C[C@H]1C [Compound 204, 1-((2R,5S)-4-(6-chloro-8-fluoro-7-(5-methyl-1H-indazol-4-yl)-2-((1-methyl-1H-pyrazol-5-yl)oxy)quinazolin-4-yl)-2,5-dimethyl-piperazin-1-yl) prop-2-en-1-one] | ++ (++ indicates binding activity from 50 to 90%) |
| C#CCN(C)C1CN(c2nc(N3C[C@@H](C)N(C(=O)C=C)C[C@@H]3C)c3cc(Cl)c(-c4c(O)cccc4F)c(F)c3n2)C1 [Compound 93, 1-((2R,5S)-4-(6-chloro-8-fluoro-7-(2-fluoro-6-hydroxyphenyl)-2-(3-(methyl (prop-2-yn-1-yl)amino)azetidin-1-yl)quinazolin-4-yl)-2,5-dimethyl-piperazin-1-yl) prop-2-en-1-one] | ++ (++ indicates binding activity from 50 to 90%) |
| C=CC(=O)N1C[C@H](C)N(c2nc(OCCN3CC(F)(F)C3)nc3c(F)c(-c4c(O)cccc4F)c(Cl)cc23)C[C@H]1C (atropisomer, axis not shown) [Compound 89, 1-((2R,5S)-4-(6-chloro-2-(2-(3,3-difluoroazetidin-1-yl)ethoxy)-8-fluoro-7-((R)-2-fluoro-6-hydroxyphenyl)quinazolin-4-yl)-2,5-dimethyl-piperazin-1-yl) prop-2-en-1-one] | + (+ indicates binding activity greater than 0% and up to 50%) |
